Data reported in patent US20190119251A1, “AMIDE-SUBSTITUTED ARYLTRIAZOLE DERIVATIVES AND USES THEREOF” (BAYER PHARMA AKTIENGESELLSCHAFT, priority 2016, published 2019).

Key:
human V1a receptor = target: T1, human V1a receptor (Homo sapiens, UniProt P37288); experiment: Cellular in vitro assay for determining vasopressin receptor activity (V1a cell line, aequorin luminescence); format: cell-based; details: for IC50: CHO cell line transfected with the human V1a receptor, agonist [Arg8]-vasopressin at EC50 concentration, read-out: IC50 hV1a; for ratio IC50 hV2/hV1a: ratio of cellular IC50 values, human V2 over human V1a
T1 construct: expressed in transfected cells; host or cells: CHO K1 (Chinese hamster ovary), also stably transfected with modified aequorin
Protocol: (§1) B-1. Cellular In Vitro Assay for Determining Vasopressin Receptor Activity
(§2) The identification of agonists and antagonists of the V 1 a and V2 vasopressin receptors from humans, rats and dogs as well as the quantification of the activity of the compounds of the invention is carried out using recombinant cell lines. These cell lines originally derive from a hamster's ovary epithelial cell (Chinese Hamster Ovary, CHO K1, ATCC: American Type Culture Collection, Manassas, Va. 20108, USA). The test cell lines constitutively express the human, rat or dog
(§3) V1 a or V2 receptors. In case of the Gag-coupled V 1 a receptors, cells are also stably transfected with a modified form of the calcium-sensitive photoproteins aequorin (human and rat V1a) or obelin (dog V 1 a), which, after reconstitution with the cofactor coelenterazine, emit light when there are increases in free calcium concentrations [Rizzuto R, Simpson A W, Brini M, Pozzan T, Nature 358, 325-327 (1992); Illarionov B A, Bondar V S, Illarionova V A, Vysotski E S, Gene 153 (2), 273-274 (1995)]. The resulting vasopressin receptor cells react to stimulation of the recombinantly expressed V 1 a receptors by intracellular release of calcium ions, which can be quantified by the resulting photoprotein luminescence. The Gs-coupled V2 receptors are stably transfected into cell lines expressing the gene for firefly luciferase under control of a CRE-responsible promoter. Activation of V2 receptors induces the activation of the CRE-responsive promoter via cAMP increase, thereby inducing the expression of firefly luciferase. The light emitted by photoproteins of V1a cell lines as well as the light emitted by firefly luciferase of V2 cell lines corresponds to the activation or inhibition of the respective vasopressin receptor. The bioluminescence of the cell lines is detected using a suitable luminometer [Milligan G, Marshall F, Rees S, Trends in Pharmacological Sciences 17, 235-237 (1996)].
Vasopressin V1a Receptor Cell Lines:
On the day before the assay, the cells are plated out in culture medium (DMEM/F12, 2% FCS, 2 mM glutamine, 10 mM HEPES, 5 μg/ml coelenterazine) in 384-well microtiter plates and kept in a cell incubator (96% humidity, 5% v/v CO2, 37° C.). On the day of the assay, test compounds in various concentrations are placed for 10 minutes in the wells of the microtiter plate before the agonist [Arg^8]-vasopressin at EC50 concentration is added. The resulting light signal is measured immediately in a luminometer.
(§4) Table 1A below lists individual IC50 values for the compounds of the invention (including racemic mixtures as well as separated enantiomers) that were obtained from cell lines transfected with the human V1a or V2 receptor: […]

human V2 receptor = target: T2, human V2 receptor (Homo sapiens, UniProt P30518); experiment: Cellular in vitro assay for determining vasopressin receptor activity (V2 cell line, CRE-luciferase); format: cell-based; details: CHO cell line transfected with the human V2 receptor; agonist [Arg8]-vasopressin at EC50 concentration; 3 hours incubation; read-out: IC50 hV2
T2 construct: expressed in transfected cells; host or cells: CHO K1 (Chinese hamster ovary) expressing firefly luciferase under a CRE-responsive promoter
Protocol: as §1, §2, §3
Vasopressin V2 Receptor Cell Lines:
On the day before the assay, the cells are plated out in culture medium (DMEM/F12, 2% FCS, 2 mM glutamine, 10 mM HEPES) in 384-well microtiter plates and kept in a cell incubator (96% humidity, 5% v/v CO2, 37° C.). On the day of the assay, test compounds in various concentrations and the agonist [Arg^8]-vasopressin at EC50 concentration are added together to the wells, and plates are incubated for 3 hours in a cell incubator. Upon addition of the cell lysis reagent Triton™ and the substrate luciferin, luminescence of firefly luciferase is measured in a luminometer.
as §4

T2 sequence (P30518 whole entry): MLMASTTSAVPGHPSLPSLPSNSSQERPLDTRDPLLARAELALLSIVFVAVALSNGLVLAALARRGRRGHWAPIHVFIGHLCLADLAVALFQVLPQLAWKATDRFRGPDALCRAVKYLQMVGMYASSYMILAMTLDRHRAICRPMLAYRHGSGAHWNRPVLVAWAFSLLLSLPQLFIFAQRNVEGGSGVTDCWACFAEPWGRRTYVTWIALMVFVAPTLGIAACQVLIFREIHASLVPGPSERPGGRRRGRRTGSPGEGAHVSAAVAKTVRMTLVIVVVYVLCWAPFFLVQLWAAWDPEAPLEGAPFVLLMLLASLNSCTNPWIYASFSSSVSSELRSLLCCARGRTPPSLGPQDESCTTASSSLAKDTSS
T1 sequence (P37288 whole entry): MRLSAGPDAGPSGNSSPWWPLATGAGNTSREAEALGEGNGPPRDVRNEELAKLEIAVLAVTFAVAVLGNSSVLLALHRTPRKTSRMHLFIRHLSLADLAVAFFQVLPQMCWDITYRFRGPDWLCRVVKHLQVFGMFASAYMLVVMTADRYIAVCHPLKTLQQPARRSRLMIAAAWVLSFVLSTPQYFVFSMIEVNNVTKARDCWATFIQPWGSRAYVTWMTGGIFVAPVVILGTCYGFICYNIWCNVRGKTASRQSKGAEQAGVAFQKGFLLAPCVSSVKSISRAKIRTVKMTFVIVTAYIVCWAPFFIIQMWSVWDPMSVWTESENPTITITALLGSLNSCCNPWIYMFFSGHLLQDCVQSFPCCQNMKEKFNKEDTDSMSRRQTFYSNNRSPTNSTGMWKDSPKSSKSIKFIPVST

SMILES	IC50 (human V1a receptor)	ratio IC50 hV2/hV1a (human V1a receptor)	IC50 (human V2 receptor)
NC(=O)c1nc(Cn2nc(-c3ccc(Cl)cc3)n(C[C@H](O)C(F)(F)F)c2=O)nn1-c1c(F)cccc1F [Example 25, 3-({3-(4-Chlorophenyl)-5-oxo-4-[(2S)-3,3,3-trifluoro-2-hydroxypropyl]-4,5-dihydro-1H-1,2,4-triazol-1-yl}methyl)-1-(2,6-difluorophenyl)-1H-1,2,4-triazole-5-carboxamide]	2.95 nM	2.2	6.45 nM
NC(=O)c1nc(Cn2nc(-c3ccc(Cl)cc3)n(C[C@H](O)C(F)(F)F)c2=O)nn1-c1ccc(F)cc1Cl [Example 26, 1-(2-Chloro-4-fluorophenyl)-3-({3-(4-chlorophenyl)-5-oxo-4-[(2S)-3,3,3-trifluoro-2-hydroxypropyl]-4,5-dihydro-1H-1,2,4-triazol-1-yl}methyl)-1H-1,2,4-triazole-5-carboxamide]	3.5 nM	4.9	17 nM
NC(=O)c1nc(Cn2nc(-c3ccc(Cl)cc3)n(C[C@H](O)C(F)(F)F)c2=O)nn1-c1ccccc1OC(F)F [Example 27, 3-({3-(4-Chlorophenyl)-5-oxo-4-[(2S)-3,3,3-trifluoro-2-hydroxypropyl]-4,5-dihydro-1H-1,2,4-triazol-1-yl}methyl)-1-[2-(difluoromethoxy)phenyl]-1H-1,2,4-triazole-5-carboxamide]	4.5 nM	9.3	41.7 nM
CC(C)c1ccccc1-n1nc(Cn2nc(-c3ccc(Cl)cc3)n(C[C@H](O)C(F)(F)F)c2=O)nc1C(N)=O [Example 28, 3-({3-(4-Chlorophenyl)-5-oxo-4-[(2S)-3,3,3-trifluoro-2-hydroxypropyl]-4,5-dihydro-1H-1,2,4-triazol-1-yl}methyl)-1-(2-isopropylphenyl)-1H-1,2,4-triazole-5-carboxamide]	4.85 nM	13.3	64.5 nM
NC(=O)c1nc(Cn2nc(-c3ccc(Cl)cc3)n(C[C@H](O)C(F)(F)F)c2=O)nn1-c1ccccc1F [Example 29, 3-({3-(4-Chlorophenyl)-5-oxo-4-[(2S)-3,3,3-trifluoro-2-hydroxypropyl]-4,5-dihydro-1H-1,2,4-triazol-1-yl}methyl)-1-(2-fluorophenyl)-1H-1,2,4-triazole-5-carboxamide]	13.3 nM	1.8	24.1 nM
NC(=O)c1nc(Cn2nc(-c3ccc(Cl)cc3)n(C[C@H](O)C(F)(F)F)c2=O)nn1-c1ccccc1 [Example 30, 3-({3-(4-Chlorophenyl)-5-oxo-4-[(2S)-3,3,3-trifluoro-2-hydroxypropyl]-4,5-dihydro-1H-1,2,4-triazol-1-yl}methyl)-1-phenyl-1H-1,2,4-triazole-5-carboxamide]	14 nM	0.7	9.75 nM
CCc1cccc(C)c1-n1nc(Cn2nc(-c3ccc(Cl)cc3)n(C[C@H](O)C(F)(F)F)c2=O)nc1C(N)=O [Example 31, 3-({3-(4-Chlorophenyl)-5-oxo-4-[(2S)-3,3,3-trifluoro-2-hydroxypropyl]-4,5-dihydro-1H-1,2,4-triazol-1-yl}methyl)-1-(2-ethyl-6-methylphenyl)-1H-1,2,4-triazole-5-carboxamide]	14.5 nM	0.5	7.95 nM
NC(=O)c1nc(Cn2nc(-c3ccc(Cl)cc3)n(C[C@H](O)C(F)(F)F)c2=O)nn1-c1cccc(F)c1 [Example 32, 3-({3-(4-Chlorophenyl)-5-oxo-4-[(2S)-3,3,3-trifluoro-2-hydroxypropyl]-4,5-dihydro-1H-1,2,4-triazol-1-yl}methyl)-1-(3-fluorophenyl)-1H-1,2,4-triazole-5-carboxamide]	18.3 nM	1.3	23.9 nM
NC(=O)c1nc(Cn2nc(-c3ccc(Cl)cc3)n(CC(=O)C(F)(F)F)c2=O)nn1-c1ccccc1Cl [Example 37, 1-(2-Chlorophenyl)-3-{[3-(4-chlorophenyl)-5-oxo-4-(3,3,3-trifluoro-2-oxopropyl)-4,5-dihydro-1H-1,2,4-triazol-1-yl]methyll-1H-1,2,4-triazole-5-carboxamide (ketone form) or 1-(2-Chlorophenyl)-3-{[3-(4-Chlorophenyl)-5-oxo-4-(3,3,3-trifluoro-2,2-dihydroxypropyl)-4,5-dihydro-1H-1,2,4-triazol-1-yl]methyl}-1H-1,2,4-triazole-5-carboxamide (hydrate form)]	1.37 nM	9.9	13.5 nM

Results, then the molecule that gave them:

IC50 (human V1a receptor)	ratio IC50 hV2/hV1a (human V1a receptor)	IC50 (human V2 receptor)	SMILES
24 nM	0.2	4.55 nM	NC(=O)c1nc(Cn2nc(-c3ccc(Cl)cc3)n(C[C@H](O)C(F)(F)F)c2=O)nn1-c1cccc(Cl)c1 [Example 33, 1-(3-Chlorophenyl)-3-({3-(4-chlorophenyl)-5-oxo-4-[(2S)-3,3,3-trifluoro-2-hydroxypropyl]-4,5-dihydro-1H-1,2,4-triazol-1-yl}methyl)-1H-1,2,4-triazole-5-carboxamide]
1.11 nM	6.9	7.63 nM	COc1ccccc1-n1nc(Cn2nc(-c3ccc(Cl)cc3)n(C[C@H](O)C(F)(F)F)c2=O)nc1C(N)=O [Example 34, 3-({3-(4-Chlorophenyl)-5-oxo-4-[(2S)-3,3,3-trifluoro-2-hydroxypropyl]-4,5-dihydro-1H-1,2,4-triazol-1-yl}methyl)-1-(2-methoxyphenyl)-1H-1,2,4-triazole-5-carboxamide]
0.77 nM	11.1	8.46 nM	NC(=O)c1nc(Cn2nc(-c3ccc(Cl)cc3)n(C[C@H](O)C(F)(F)F)c2=O)nn1-c1ccccc1Cl [Example 35, 1-(2-Chlorophenyl)-3-({3-(4-chlorophenyl)-5-oxo-4-[(2S)-3,3,3-trifluoro-2-hydroxypropyl]-4,5-dihydro-1H-1,2,4-triazol-1-yl}methyl)-1H-1,2,4-triazole-5-carboxamide]
3.8 nM	23.0	87.5 nM	NC(=O)c1nc(Cn2nc(-c3ccc(Cl)cc3)n(C[C@@H](O)C(F)(F)F)c2=O)nn1-c1ccccc1Cl [Example 36, 1-(2-Chlorophenyl)-3-({3-(4-chlorophenyl)-5-oxo-4-[(2R)-3,3,3-trifluoro-2-hydroxypropyl]-4,5-dihydro-1H-1,2,4-triazol-1-yl}methyl)-1H-1,2,4-triazole-5-carboxamide]
